# From patent US10280179B2, “Spiroquinoxaline derivatives as inhibitors of non-apoptotic regulated cell-death” (Helmholtz Zentrum Munchen—Deutches Forschungszentrum Fur …, priority 2013, dated 2019)
# Like-named read-outs stand apart in the source and are kept apart here.
# Tests used:
# Format in all cases: cell-based
# [1] = test system: mouse hippocampal cell line (Ht22); experiment: Inhibition of glutamate-induced non-apoptotic cell death (Example B.2); conditions: HT-22, Ht22 cells
# From the text: Inhibition of Glutamate-Induced Non-Apoptotic Cell Death by Compounds of the Present Invention
# Glutamate toxicity is conferred on cells from the mouse hippocampal cell line (Ht22) by inhibition of the cysteine/glutamate antiporter, System xc-, leading to impaired cysteine uptake and subsequent GSH depletion. This model is frequently used for mimicking glutathione depletion following oxidative stress in stroke, brain trauma and other neurodegenerative diseases and cellular conditions following ischemia (for example: van Leyen et al, J. Neurochem. 92:824-30 (2005)).
# Compounds disclosed herein were evaluated for their ability to promote cell survival upon administration of a lethal dose of glutamate (GLU) to the cell-culture medium.
# Briefly, Ht22 cells (ATCC) were propagated DMEM supplemented with 10% FBS/1% Penicillin-Streptomycin, and then seeded onto 96-well plates at a concentration of 2,000 cells/well in 100 μL of MEDIA, simultaneously with glutamate (Sigma Aldrich) to a final concentration of 5 mM, together with increasing concentrations of the compound to be tested (0.5 pM to 100 μM), and the plates incubated at 37° C./5% CO2 for 72 hours. Compound dilutions were prepared from 10 mM stocks dissolved in DMSO and diluted in media. Cells treated with glutamate alone were used as negative control and alpha-tocopherol (Sigma Aldrich) was used as positive control. Compound concentrations were tested in triplicate. After incubation, cell survival was detected and quantified as described in Example B.1.
# Pfa1 cells = experiment: Inhibition of non-apoptotic cell death after tamoxifen-induced GPx4 knockout in a recombinant cell line (Example B.4); conditions: Mus musculus, read-out: Pfa1/TAM IC50
# From the text: Inhibition of Non-Apoptotic Cell-Death by Compounds Disclosed Herein Using a Recombinant Cell Line
# To combat high intracellular ROS levels, mammalian cells have evolved an intricate network of ROS scavenging in cells, in which the thioredoxin and glutathione (GSH) dependent systems prevail. […] Knockout of GPx4 in neurons causes massive neurodegeneration in cortical, cerebellar and hippocampal neurons underscoring the high relevance of ROS-induced cell death signaling in the brain. Briefly, immortalised fibroblasts from these mice were made to contain tamoxifen-inducible CreERT2, which catalyzes the functional ablation of both copies of GPx4 and resulting in a complete knockout of GPx4, a massive ROS burst, and cell death in cell culture. These cells (Pfa1 cells) were used to characterize compounds of the present invention, whereby tamoxifen (TAM) was given on day 0 along with the compound under test, and 72 hours later cell survival was evaluated using AlamarBlue.
# [2] = Cellular toxicity, same assay as Example B.4 without TAM (Example B.5); conditions: mouse; Pfa1 cells without TAM; read-out: TC50 (the source's name)
# From the text: Cellular Toxicity of Compounds of the Invention
# An estimate of the toxicity for compounds of the invention was obtained by using the same assay as described in Example B.4, but without the addition of TAM. […] Such TC50 values obtained for certain compounds disclosed herein, together with an approximate therapeutic window (estimated by dividing each TC50 by the corresponding IC50 determined from example B.4) are shown in Table 3.
# [3] = test system: human neuroblastoma cell line SH-SY5Y; experiment: Inhibition of BSO-induced non-apoptotic cell death (Example B.1); conditions: SH-SY5Y cells, 72 hours
# From the text: Inhibition of BSO-Induced Non-Apoptotic Cell Death by Compounds Disclosed Herein
# L-Buthionine sulfoximine (BSO) is a well-known glutathione (GSH) depletory, which inhibits gamma-glutamyl-cysteine-synthetase, the enzyme catalyzing the rate-limiting step in GSH biosynthesis. The human neuroblastoma cell line SH-SY5Y is sensitive to BSO-induced intracellular glutathione depletion, which causes high levels of reactive oxygen species (ROS) and cellular stress mimicking cellular conditions following ischemia (cf., e.g., Yamada et al., Neurochem. Int. 59:1003-9 (2011)).
# Compounds disclosed herein were evaluated for their ability to promote cell survival upon administration of a lethal dose of BSO to cell-culture medium. Briefly, SH-SY5Y cells (ATCC® CRL-2266™) were propagated in DMEM supplemented with 10% FBS/1% Penicillin-Streptomycin, and then seeded onto 96-well plates at a concentration of 750 cells/well in 100 μL of media, to which BSO (Sigma Aldrich) was added (to a final concentration of 50 μM) together with increasing concentrations of the compound to be tested, and the plates incubated at 37° C./5% CO2 for 72 hours. Compound dilutions (0.5 pM to 100 μM) were prepared from 10 mM stocks dissolved in DMSO and diluted in media. Cells treated with BSO alone were used as negative control and alpha-Tocopherol (Sigma Aldrich) was used as positive control. Compound concentrations were tested in triplicate. After incubation, cell survival was detected using the live/dead cell assay AquaBluer™ (MultiTarget Pharmaceuticals) and quantified using a fluorescence plate reader (excitation filter: 530-560 nm/emission filter: 590 nm) (SpectraMax M4; Molecular Devices). Fluorescence data so obtained was normalised to the percentage of surviving cells and IC50 values calculated using the GraphPad Prism (GraphPad Software, Inc) software package.
# [4] = glutamate-induced cell death, read-out: Ht22/GLU
# [5] = 50 μM BSO, read-out: SH-SY5Y/BSO IC50
SMILES,"IC50 [1, 4]",IC50 (Pfa1 cells),CC50 [2],"IC50 [3, 5]","IC50 ([1]; glutamate 5 mM, 72 hours, cell survival, read-out: Ht22/GLU (Example B.2) IC50)","IC50 ([3]; BSO 50 μM, cell survival (AquaBluer), read-out: SH-SY5Y/BSO (Example B.1) IC50)"
Clc1ccccc1CNC1=Nc2ccccc2NC12CCCCC2 [C-1],< 1000 nM,< 500 nM,20000 to 50000 nM,< 500 nM,,
Clc1cccc(CNC2=Nc3ccccc3NC23CCCCC3)c1 [C-2],< 500 nM,< 100 nM,10000 to 20000 nM,< 100 nM,,
Cc1ccc(CNC2=Nc3ccccc3NC23CCCCC3)cc1 [C-12],< 500 nM,< 500 nM,50000 to 100000 nM,< 500 nM,298 nM,468 nM
CC(=O)NC1CCC2(CC1)Nc1ccccc1N=C2NCc1cccc(Cl)c1 (stereo not shown) [C-111],< 1000 nM,< 1000 nM,10000 to 20000 nM,< 500 nM,,
Fc1cc2c(cc1F)NC1(CCCCC1)C(NCc1cccc(Cl)c1)=N2 [C-137],< 200 nM,< 200 nM,10000 to 20000 nM,< 200 nM,,
Clc1cccc(CNC2=Nc3ccccc3NC23CCCCCCC3)c1 [C-206],< 500 nM,< 500 nM,5000 to 10000 nM,< 50 nM,,
c1ccc(CNC2=Nc3ccccc3NC23CCCCCC3)cc1 [C-214],< 1000 nM,< 500 nM,10000 to 20000 nM,< 500 nM,,
c1ccc(CNC2=Nc3ccccc3NC23CCCCC3)cc1 [C-215],< 1000 nM,< 1000 nM,20000 to 50000 nM,< 200 nM,,
Clc1cccc(CNC2=Nc3ccccc3NC23CCCCCC3)c1 [C-216],< 500 nM,< 100 nM,10000 to 20000 nM,< 50 nM,,
Clc1cc2c(cc1Cl)NC1(CCCCC1)C(NCc1ccccc1)=N2 [C-217],< 200 nM,< 50 nM,20000 to 50000 nM,< 50 nM,,
c1ccc(CNC2=Nc3cc4c(cc3NC23CCCCC3)OCCO4)cc1 [C-223],< 1000 nM,< 200 nM,20000 to 50000 nM,< 500 nM,,
Clc1cccc(CNC2=Nc3cc4c(cc3NC23CCCCC3)OCCO4)c1 [C-227],< 1000 nM,< 50 nM,20000 to 50000 nM,< 500 nM,,
Clc1ccc(CNC2=Nc3ccccc3NC23CCCCC3)cc1Cl [C-228],< 500 nM,< 50 nM,20000 to 50000 nM,< 50 nM,,
CC(=O)NC1CCC2(CC1)Nc1ccccc1N=C2NCc1ccccc1 (stereo not shown) [C-249],< 5000 nM,< 5000 nM,50000 to 100000 nM,< 1000 nM,,
CC1CCC2(CC1)Nc1ccccc1N=C2NCc1ccccc1 (stereo not shown) [C-252],< 1000 nM,< 1000 nM,10000 to 20000 nM,< 200 nM,,
CC1(C)CCC2(CC1)Nc1ccccc1N=C2NCc1ccccc1 [C-253],< 1000 nM,< 1000 nM,10000 to 20000 nM,< 100 nM,,
FC(F)(F)c1cccc2c1N=C(NCc1ccccc1)C1(CCCCC1)N2 [C-254],< 500 nM,< 500 nM,5000 to 10000 nM,< 50 nM,,
Cc1cc2c(cc1C)NC1(CCCCCC1)C(NCc1cccc(Cl)c1)=N2 [C-255],< 200 nM,< 200 nM,5000 to 10000 nM,< 50 nM,,
FC1(F)Oc2cc3c(cc2O1)NC1(CCCCC1)C(NCc1ccccc1)=N3 [C-256],< 200 nM,< 100 nM,20000 to 50000 nM,< 50 nM,,
NC1CCC2(CC1)Nc1ccccc1N=C2NCc1ccccc1 (stereo not shown) [C-257],< 500 nM,< 200 nM,2000 to 5000 nM,< 100 nM,,
Clc1ccc2c(c1)N=C(NCc1ccccc1)C1(CCCCC1)N2 [C-258],< 500 nM,< 200 nM,10000 to 20000 nM,< 50 nM,,
FC(F)(F)c1ccc2c(c1)N=C(NCc1ccccc1)C1(CCCCC1)N2 [C-259],< 500 nM,< 500 nM,5000 to 10000 nM,< 100 nM,,
FC(F)(F)c1cccc(CNC2=Nc3cc(Cl)c(Cl)cc3NC23CCCCCC3)c1 [C-260],< 500 nM,< 200 nM,5000 to 10000 nM,< 50 nM,,
FC(F)(F)c1cccc(CNC2=Nc3ccccc3NC23CCCCCC3)c1 [C-261],< 500 nM,< 500 nM,10000 to 20000 nM,< 50 nM,,
Cc1cc(C)cc(CNC2=Nc3cc(Cl)c(Cl)cc3NC23CCCCCC3)c1 [C-262],< 500 nM,< 500 nM,10000 to 20000 nM,< 100 nM,,
Cc1cccc2c1NC1(CCCCC1)C(NCc1ccccc1)=N2 [C-263],< 500 nM,< 500 nM,10000 to 20000 nM,< 50 nM,,
FC(F)(F)c1cccc(CNC2=Nc3cc(Cl)c(Cl)cc3NC23CCCCC3)c1 [C-264],< 500 nM,< 500 nM,10000 to 20000 nM,< 50 nM,,
Fc1ccc(CNC2=Nc3cc(Cl)c(Cl)cc3NC23CCCCC3)c(F)c1 [C-265],< 500 nM,< 500 nM,10000 to 20000 nM,< 50 nM,,
Fc1cccc(F)c1CNC1=Nc2ccccc2NC12CCCCCC2 [C-266],< 500 nM,< 500 nM,10000 to 20000 nM,< 100 nM,,
Fc1ccc(CNC2=Nc3ccccc3NC23CCSCC3)c(F)c1 [O/S-359],< 5000 nM,> 5000 nM,50000 to 100000 nM,,,
